Assay results published in patent US20250051282A1, “COMPOUNDS FOR TREATING POLYQ-RELATED NEURODEGENERATIVE DISORDERS” (HANGZHOU JIJING PHARMACEUTICAL TECHNOLOGY LIMITED, priority 2021, published 2025).
Structures can show the parent of a compound that is named as a salt.

test system: ATXN1(60Q); assay: Daoy-ATXN1(60Q)-mATXN1 MSD assay (CTG normalized); assay type: cell-based; settings: Daoy-Flag-ATXN1(60Q) stable cells, compound added Day 2, lysis Day 3, final DMSO 0.3%, read-out: Daoy-ATXN1(60Q)-mATXN1 MSD (CTG normalized) DC50
Protocol: Protocol for MSD Assay: Daoy-ATXN1(600)-mATXN1 MSD (CTG normalized)
The Flag-ATXN1(60Q) gene is synthesized by Genescript and cloned into the pLVX-IRES-Puro vector (Takarabio, catalog No. 632183) using EcoRI/BamHI restriction enzyme sites. Lentivirus is made by transfecting HEK293T cells with pLVX-IRES-Puro-Flag-ATXN1(60Q) plasmids and packaging plasmids psPAX2 and pMD2.G at 4:3:1 ratio (8:6:[…], respectively) in 10 cm plates, and are harvested at 48 hours post transfection. Daoy cells (ATCC catalog No. HTB-186) seeded in T25 flasks are infected with the lentivirus in the presence of 8 µg/mL polybrene (Sigma, TR-1003-G) for 24 hours. 48 hours post infection, the cells are selected using 0.5 […] (Sigma, P8833) for more than 5 days until all cells in the uninfected group die. The expression of Flag-ATXN1(60Q) is verified by anti-Flag immunoblot using anti-Flag antibody (Sigma, F1804-200UG, M2).
As explained above, Daoy-Flag-ATXN1(60Q) cells are prepared as a stable cell line by infecting Daoy cells with lentivirus. The media for the cells is EMEM (ATTC, 30-2008) with 10% fetal bovin serum (FBS).
On Day 1, the Daoy-Flag-ATXN1(60Q) cells are seeded in a 96 well plate at a concentration of 1.2×10^4/well. On Day 2, the cells are treated with test compounds at test concentrations (compounds are serially diluted with DMSO to obtain test concentrations, such that final DMSO concentration is 0.3%). On Day 3, the cells are washed with 100 μL of phosphate-buffered saline (PBS) per well, and then 30 μL of radioimmuno-precipitation assay (RIPA) buffer (with protease and phosphatase inhibitor cocktail) is added to each well.
The well plate is then cooled on ice for 30 minutes in order to complete lysis, and MSD samples are prepared using 10 μL of Daoy-Flag-ATXN1-60Q lysate and 90 μL of RIPA buffer with gentle mixing. Each MSD sample has a total volume of 100 μL, and is used immediately or stored at −80° C.
A standard Meso Scale Discovery (MSD) plate is coated with anti-Flag (Sigma, F1804-200UG, M2) in PBS at 1:500 dilution ratio and 40 µL/well, and is incubated at 4° C. overnight with shaking at 600 rpm. Then, the MSD plate is washed 3 times with 150 µL/well of 1X TBST (tris-buffered saline (TBS) with Tween 20) buffer, and the MSD plate is blocked with 150 μL of blocking buffer [3% Blocker A in 1X TBST, (3 g Blocker A per 100 mL 1X TBST)] and shaken for 1 hour at 600 rpm at room temperature. Then, the MSD plate is washed three times with 150 μL/well of 1X TBST. Next, the diluted lysate samples (from Sample Preparation above) are added to the MSD plate at 25 μL/well, and the MSD plate is shaken at 600 rpm for 1 hour at room temperature. Then the MSD plate is washed 3 times with 150 μL/well of 1X TBST.
Detection antibody anti-Ataxin 1 (G-bio, ITA1916) (1:500), which is prepared in antibody detection buffer (1% Blocker A in 1X TBST), is then added to the MSD plate at 25 µL/well, and the MSD plate is shaken at 600 rpm for 1 hour at room temperature. The MSD plate is then washed three times with 150 μL/well of 1X TBST. Next, a secondary detection antibody, Goat anti-rabit (GAR) with SULFO-TAG (1:500), which is prepared in antibody detection buffer (1% Blocker A in 1X TBST), is added at 25 μL/well and the MSD plate is shaken at 600 rpm for 1 hour at room temperature. Then the MSD plate is washed 3 times with 150 μL/well of 1X TBST, and 2X MSD reading buffer is added at 150 μL/well (diluted from 4x MSD reading buffer with water). Finally, the signal from each well is measured on the MSD Meso QuickPle SQ120 Plate Reader. DC50 data is calculated using collaborate drug discovery (CDD) software (https://www.collaborativedrug.com/about).

`CN/C(=C1\C(=O)Nc2ccc(Br)cc21)c1cccc(O)c1` [Example 1, (Z)-5-bromo-3-((3-hydroxyphenyl) (methylamino)methylene) indolin-2-one] and `O=C1Nc2ccc(Br)cc2/C1=C(/NC1CC1)c1cccc(O)c1` [Example 7, (Z)-5-bromo-3-((cyclopropylamino) (3-hydroxyphenyl)methylene)indolin-2-one] cannot be ordered by DC50: under 10 µM for the first, under 10 µM for the second.

`O=C1Nc2ccc(Br)cc2/C1=C(/NCCCF)c1cccc(O)c1` [Example 6, (Z)-5-bromo-3-(((3-fluoropropyl)amino) (3-hydroxyphenyl)methylene)indolin-2-one] and `NCCN/C(=C1\C(=O)Nc2ccc(Br)cc21)c1cccc(O)c1` [Example 27, (Z)-3-(((2-aminoethyl)amino)(3-hydroxyphenyl)methylene)-5-bromo indolin-2-one] cannot be ordered by DC50: under 10 µM for the first, under 10 µM for the second.

`O=C1Nc2ccc(Br)cc2/C1=C(/NC1CCC1)c1cccc(O)c1` [Example 8, (Z)-5-bromo-3-((cyclobutylamino) (3-hydroxyphenyl)methylene)indolin-2-one] and `O=C1Nc2ccc(Br)cc2/C1=C(/NC1CCNCC1)c1cccc(O)c1` [Example 25, (Z)-5-bromo-3-((3-hydroxyphenyl) (piperidin-4-ylamino)methylene) indolin-2-one] cannot be ordered by DC50: under 10 µM for the first, under 10 µM for the second.

`CN1CC(N/C(=C2\C(=O)Nc3ccc(Br)cc32)c2cccc(O)c2)C1` [Example 9, (Z)-5-bromo-3-((3-hydroxyphenyl)((1-methylazetidin-3-yl)amino)methylene) indolin-2-one] and `O=C1Nc2ccc(Br)cc2/C1=C(/NC1CNC1)c1cccc(O)c1` [Example 26, (Z)-3-((azetidin-3-ylamino)(3-hydroxyphenyl)methylene) 5-bromindolin-2-one] cannot be ordered by DC50: under 10 µM for the first, under 10 µM for the second.

Going from `O=C1Nc2ccc(Br)cc2/C1=C(\c1cccc(O)c1)N1CCCCC1` [Example 12, (Z)-5-bromo-3-((3-hydroxyphenyl) (piperidin-1-yl)methylene) indolin-2-one] to `CN1CCC(N/C(=C2\C(=O)Nc3ccc(Br)cc32)c2cccc(O)c2)CC1` [Example 15, (Z)-5-bromo-3-((3-hydroxyphenyl)((1-methylpiperidin-4-yl)amino)methylene) indolin-2-one], the DC50 falls from over 30 µM to under 10 µM.

`O=C1Nc2ccc(Br)cc2/C1=C(/Nc1c[nH]cn1)c1cccc(O)c1` [Example 17, (Z)-3-(((1H-imidazol-4-yl)amino)(3-hydroxyphenyl)methylene)-5-bromoindolin-2-one] and `O=C1Nc2ccc(Br)cc2/C1=C(/Nc1ccnnc1)c1cccc(O)c1` [Example 38, (Z)-5-bromo-3-((3-hydroxyphenyl)(pyridazin-4-ylamino)methylene) indolin-2-one] cannot be ordered by DC50: under 10 µM for the first, under 10 µM for the second.

`O=C1Nc2ccc(OC(F)(F)F)cc2/C1=C(/NCCO)c1cccc(O)c1` [Example 18, (Z)-3-(((2-hydroxyethyl)amino)(3-hydroxyphenyl)methylene)-5-(trifluoromethoxy) indolin-2-one] and `Nc1cccc(/C(NC2CNC2)=C2/C(=O)Nc3ccc(OC(F)(F)F)cc32)c1` [Example 34, (Z)-3-((3-aminophenyl)(azetidin-3-ylamino)methylene)-5-(trifluoromethoxy) indolin-2-one] cannot be ordered by DC50: under 10 µM for the first, under 10 µM for the second.

Compared with `O=C1Nc2ccc(Br)cc2/C1=C(/NCCCF)c1ccccc1` [Example 19, (Z)-5-bromo-3-(((3-fluoropropyl)amino) (phenyl)methylene) indolin-2-one], `NCCN/C(=C1\C(=O)Nc2ccc(Br)cc21)c1ccccc1` [Example 28, (Z)-3-(((2-aminoethyl)amino) (phenyl)methylene)-5-bromoindolin-2-one] is higher in DC50: under 10 µM for the first, 10 to 30 µM for the second.

`O=C1Nc2ccc(Br)cc2/C1=C(/NCCCF)c1cccc(C(F)F)c1` [Example 20, (Z)-5-bromo-3-((3-(difluoromethyl)phenyl)((3-fluoropropyl)amino)methylene) indolin-2-one] and `NCCN/C(=C1\C(=O)Nc2ccc(Br)cc21)c1cccc(C(F)F)c1` [Example 30, (Z)-3-(((2-aminoethyl)amino)(3-(difluoromethyl)phenyl)methylene)-5-bromoindolin-2-one] cannot be ordered by DC50: under 10 µM for the first, under 10 µM for the second.

Compared with `Cn1cc(N/C(=C2\C(=O)Nc3ccc(Br)cc32)c2cccc(F)c2)cn1` [Example 21, (Z)-5-bromo-3-((3-fluorophenyl)((1-methyl-1H-pyrazol-4-yl)amino)methylene) indolin-2-one], `Cn1cc(N/C(=C2\C(=O)Nc3ccc(Br)cc32)c2ccccc2)cn1` [Example 22, (Z)-5-bromo-3-(((1-methyl-1H-pyrazol-4-yl)amino)(phenyl)methylene)indolin-2-one] is lower in DC50: over 30 µM for the first, 10 to 30 µM for the second.

Compared with `O=C1Nc2ccc(Br)cc2/C1=C(/NC1CCNC1)c1cccc(O)c1` (stereo not shown) [Example 24, (Z)-5-bromo-3-((3-hydroxyphenyl) (pyrrolidin-3-ylamino)methylene) indolin-2-one formate], `Nc1cccc(/C(NC2CNC2)=C2/C(=O)Nc3ccc(Br)cc32)c1` [Example 33, (Z)-3-((3-aminophenyl)(azetidin-3-ylamino)methylene)-5-bromoindolin-2-one] is lower in DC50: over 30 µM for the first, under 10 µM for the second.

`NCCN/C(=C1\C(=O)Nc2ccc(Br)cc21)c1cc(N)ccc1F` [Example 32, (Z)-3-((5-amino-2-fluorophenyl)((2-aminoethyl)amino)methylene)-5-bromo indolin-2-one] and `O=C1Nc2ccc(Br)cc2/C1=C(/NC1CNC1)c1cccc(F)c1` [Example 37, (Z)-3-((azetidin-3-ylamino)(3-fluorophenyl)methylene)-5-bromoindolin-2-one] cannot be ordered by DC50: under 10 µM for the first, under 10 µM for the second.

`O=C1Nc2ccc(Br)cc2/C1=C(/NC1CNC1)c1ccccc1` [Example 35, (Z)-3-((azetidin-3-ylamino)(phenyl)methylene)-5-bromo indolin-2-one] and `O=C1Nc2ccc(Br)cc2/C1=C(/Nc1ccnnc1)c1ccccc1` [Example 39, (Z)-5-bromo-3-(phenyl(pyridazin-4-ylamino)methylene) indolin-2-one] cannot be ordered by DC50: under 10 µM for the first, under 10 µM for the second.

First: NCCOCCOCCOCCN/C(=C1\C(=O)Nc2ccc(Br)cc21)c1cccc(O)c1 [Example 36, (Z)-3-(13-amino-1-(3-hydroxyphenyl)-5,8,11-trioxa-2-azatridecylidene)-5-bromoindolin-2-one]
Second: O=C1Nc2ccc(Br)cc2/C1=C(/Nc1ccnnc1)c1cccc(F)c1 [Example 40, (Z)-5-bromo-3-((3-fluorophenyl)(pyridazin-4-ylamino)methylene) indolin-2-one]
The DC50 of the first is higher: 10 to 30 µM for the first, under 10 µM for the second.

Going from `O=C1Nc2ccc(Br)cc2/C1=C(/Nc1ccnnc1)c1cccc(C(F)F)c1` [Example 41, (Z)-5-bromo-3-((3-(difluoromethyl)phenyl)(pyridazin-4-ylamino)methylene) indolin-2-one] to `O=C1Nc2ccc(Br)cc2/C1=C(/Nc1ccnnc1)c1ccc(F)c(F)c1` [Example 42, (Z)-5-bromo-3-((3,4-difluorophenyl) (pyrazin-4-ylamino)methylene) indolin-2-one], the DC50 rises from under 10 µM to over 30 µM.

same assay, conditions: read-out: Daoy-ATXN1(60Q)-mATXN1 MSD (CTG normalized) DC50, Daoy-Flag-ATXN1(60Q) stable cells, compound added Day 2, lysis Day 3, final DMSO 0.3%

Molecule `CCCN/C(=C1\C(=O)Nc2ccc(Br)cc21)c1cccc(O)c1` [Example 5, (Z)-5-bromo-3-((3-hydroxyphenyl) (propylamino)methylene) indolin-2-one] has a DC50 of under 10 µM.
